Measured values as given in paper PMC9403976, “Elucidating the path to Plasmodium prolyl-tRNA synthetase inhibitors that overcome halofuginone resistance” (Nature Communications, 2022).
Where “and” joins values, the source holds several entries; their conditions need not be identical. Equal entries are not always repeated. Where two headings read alike, the source gives them in different places.

Legend:
HsProRS = HsProRS (Homo sapiens, UniProt P07814); test: TR-FRET ligand displacement assay with tracer MAT379 (CoraFluor-1-Halo and anti-His6 antibody formats); format: binding; set-up: made in house; host or cells: E. coli SoluBL-21; conditions: for TR-FRET dose-response, normalized signal (SI Fig 11): individual replicates
HsProRS, sequence (P07814 996-1512): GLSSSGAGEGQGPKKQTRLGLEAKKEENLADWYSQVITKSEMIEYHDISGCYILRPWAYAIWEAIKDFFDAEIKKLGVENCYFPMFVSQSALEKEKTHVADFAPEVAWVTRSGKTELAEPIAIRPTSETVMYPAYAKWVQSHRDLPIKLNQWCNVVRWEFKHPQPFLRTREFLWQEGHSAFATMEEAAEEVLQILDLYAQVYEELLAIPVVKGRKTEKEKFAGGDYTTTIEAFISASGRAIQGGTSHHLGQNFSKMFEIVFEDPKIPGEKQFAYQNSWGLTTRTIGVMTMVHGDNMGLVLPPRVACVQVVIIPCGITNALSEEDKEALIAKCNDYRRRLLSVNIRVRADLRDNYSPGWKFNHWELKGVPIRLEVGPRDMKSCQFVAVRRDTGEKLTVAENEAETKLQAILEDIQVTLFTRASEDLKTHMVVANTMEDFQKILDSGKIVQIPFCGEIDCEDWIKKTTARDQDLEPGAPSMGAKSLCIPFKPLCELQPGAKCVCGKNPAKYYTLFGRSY

PfcProRS = molecular target: T1, PfcProRS (Plasmodium falciparum, UniProt Q8I5R7); format: binding; conditions: for dose-response signal (normalized), SI Fig 8: single replicates
T1 construct: made in house; host or cells: E. coli SoluBL-21
T1 sequence (Q8I5R7 249-746): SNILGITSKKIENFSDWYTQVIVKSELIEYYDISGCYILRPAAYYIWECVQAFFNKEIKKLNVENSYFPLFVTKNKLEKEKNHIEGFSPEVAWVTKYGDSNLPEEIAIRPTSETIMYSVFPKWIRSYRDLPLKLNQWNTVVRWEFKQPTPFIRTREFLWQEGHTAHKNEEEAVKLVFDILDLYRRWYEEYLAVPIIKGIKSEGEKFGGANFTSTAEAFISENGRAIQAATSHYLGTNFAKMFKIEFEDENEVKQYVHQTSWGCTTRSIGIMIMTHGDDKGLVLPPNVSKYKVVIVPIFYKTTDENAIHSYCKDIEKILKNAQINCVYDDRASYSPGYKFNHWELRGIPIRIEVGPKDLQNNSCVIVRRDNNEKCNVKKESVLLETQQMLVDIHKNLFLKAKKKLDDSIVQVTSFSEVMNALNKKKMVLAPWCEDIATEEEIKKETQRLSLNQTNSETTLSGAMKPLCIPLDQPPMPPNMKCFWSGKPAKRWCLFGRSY

P. falciparum Dd2-2D4 = test: P. falciparum asexual blood stage (ABS) growth assay, SYBR Green, 72 h, wild-type parasites; format: cell-based, Plasmodium falciparum; conditions: Plasmodium falciparum, DD2; SI Fig 16b; values on -log scale; read-out: ABS - Dd2-2D4 (converted)

CC(C)(C)OC(=O)NCC1CCN(C(=O)Nc2nccnc2C(=O)NC2Cc3ccccc3C2)CC1 [compound 9]
HsProRS % signal at 10 μM, + 100 μM proline (HsProRS; + 100 μM proline, 10 μM): 51.7%
Kd (HsProRS; HsProRS (KD [nM]) mean, no added proline/ATP (-)): 2510 nM
normalized TR-FRET ligand displacement signal, dose-response replicates (SI Fig 6) (HsProRS; Log[inhibitor] (M) -5.000): 3.85E-02 and 1.39E-01 and 8.67E-02
TR-FRET dose-response, normalized signal (SI Fig 11) (HsProRS; Log[inhibitor] (M) -5.000): 2.52E-01 and 2.44E-01 and 2.56E-01
normalized TR-FRET ligand displacement signal, dose-response replicates (SI Fig 6) (HsProRS; Log[inhibitor] (M) -5.301): 2.62E-01 and 9.25E-02 and 2.11E-01
TR-FRET dose-response, normalized signal (SI Fig 11) (HsProRS; Log[inhibitor] (M) -5.301): 3.68E-01 and 3.83E-01 and 3.86E-01
normalized TR-FRET ligand displacement signal, dose-response replicates (SI Fig 6) (HsProRS; Log[inhibitor] (M) -5.601): 2.47E-01 and 2.95E-01 and 3.23E-01
TR-FRET dose-response, normalized signal (SI Fig 11) (HsProRS; Log[inhibitor] (M) -5.601): 5.41E-01 and 5.42E-01 and 6.20E-01
normalized TR-FRET ligand displacement signal, dose-response replicates (SI Fig 6) (HsProRS; Log[inhibitor] (M) -5.904): 5.08E-01 and 5.80E-01 and 5.13E-01
TR-FRET dose-response, normalized signal (SI Fig 11) (HsProRS; Log[inhibitor] (M) -5.904): 6.85E-01 and 6.21E-01 and 6.49E-01
normalized TR-FRET ligand displacement signal, dose-response replicates (SI Fig 6) (HsProRS; Log[inhibitor] (M) -6.208): 7.02E-01 and 7.67E-01 and 6.77E-01
TR-FRET dose-response, normalized signal (SI Fig 11) (HsProRS; Log[inhibitor] (M) -6.208): 7.39E-01 and 7.74E-01 and 7.75E-01
normalized TR-FRET ligand displacement signal, dose-response replicates (SI Fig 6) (HsProRS; Log[inhibitor] (M) -6.509): 8.58E-01 and 7.92E-01 and 7.62E-01
TR-FRET dose-response, normalized signal (SI Fig 11) (HsProRS; Log[inhibitor] (M) -6.509): 8.32E-01 and 8.29E-01 and 7.90E-01
normalized TR-FRET ligand displacement signal, dose-response replicates (SI Fig 6) (HsProRS; Log[inhibitor] (M) -6.796): 9.92E-01 and 1.07E+00 and 1.01E+00
TR-FRET dose-response, normalized signal (SI Fig 11) (HsProRS; Log[inhibitor] (M) -6.796): 8.79E-01 and 8.03E-01 and 8.17E-01
normalized TR-FRET ligand displacement signal, dose-response replicates (SI Fig 6) (HsProRS; Log[inhibitor] (M) -7.108): 8.83E-01 and 1.03E+00 and 1.07E+00
TR-FRET dose-response, normalized signal (SI Fig 11) (HsProRS; Log[inhibitor] (M) -7.108): 8.15E-01 and 8.66E-01 and 8.33E-01
normalized TR-FRET ligand displacement signal, dose-response replicates (SI Fig 6) (HsProRS; Log[inhibitor] (M) -7.409): 9.70E-01 and 9.46E-01 and 9.42E-01
TR-FRET dose-response, normalized signal (SI Fig 11) (HsProRS; Log[inhibitor] (M) -7.409): 8.81E-01 and 9.27E-01 and 8.52E-01
normalized TR-FRET ligand displacement signal, dose-response replicates (SI Fig 6) (HsProRS; Log[inhibitor] (M) -7.710): 9.63E-01 and 9.72E-01 and 1.02E+00
TR-FRET dose-response, normalized signal (SI Fig 11) (HsProRS; Log[inhibitor] (M) -7.710): 8.59E-01 and 8.71E-01 and 8.69E-01
normalized TR-FRET ligand displacement signal, dose-response replicates (SI Fig 6) (HsProRS; Log[inhibitor] (M) -8.000): 9.31E-01 and 9.57E-01 and 9.75E-01
TR-FRET dose-response, normalized signal (SI Fig 11) (HsProRS; Log[inhibitor] (M) -8.000): 9.54E-01 and 9.12E-01 and 8.65E-01
normalized TR-FRET ligand displacement signal, dose-response replicates (SI Fig 6) (HsProRS; Log[inhibitor] (M) -8.301): 9.41E-01 and 8.96E-01 and 8.89E-01
TR-FRET dose-response, normalized signal (SI Fig 11) (HsProRS; Log[inhibitor] (M) -8.301): 9.04E-01 and 9.25E-01 and 8.91E-01
normalized TR-FRET ligand displacement signal, dose-response replicates (SI Fig 6) (HsProRS; Log[inhibitor] (M) -8.602): 9.58E-01 and 9.45E-01 and 9.24E-01
TR-FRET dose-response, normalized signal (SI Fig 11) (HsProRS; Log[inhibitor] (M) -8.602): 9.14E-01 and 8.78E-01 and 9.05E-01
normalized TR-FRET ligand displacement signal, dose-response replicates (SI Fig 6) (HsProRS; Log[inhibitor] (M) -9.000): 1.05E+00 and 8.77E-01 and 8.55E-01
TR-FRET dose-response, normalized signal (SI Fig 11) (HsProRS; Log[inhibitor] (M) -9.000): 8.65E-01 and 8.66E-01 and 9.64E-01
normalized TR-FRET ligand displacement signal, dose-response replicates (SI Fig 6) (HsProRS; Log[inhibitor] (M) -9.301): 8.65E-01 and 9.01E-01 and 8.87E-01
TR-FRET dose-response, normalized signal (SI Fig 11) (HsProRS; Log[inhibitor] (M) -9.301): 9.03E-01 and 9.18E-01 and 8.96E-01
dose-response signal (normalized), SI Fig 8 (PfcProRS; Log[inhibitor] (M) -5.000): 8.25E-02 and 7.54E-02 and 9.29E-02
dose-response signal (normalized), SI Fig 8 (PfcProRS; Log[inhibitor] (M) -5.301): 2.45E-01 and 1.32E-01 and 2.09E-01
dose-response signal (normalized), SI Fig 8 (PfcProRS; Log[inhibitor] (M) -5.601): 4.06E-01 and 4.09E-01 and 3.31E-01
dose-response signal (normalized), SI Fig 8 (PfcProRS; Log[inhibitor] (M) -5.904): 5.21E-01 and 6.14E-01 and 5.87E-01
dose-response signal (normalized), SI Fig 8 (PfcProRS; Log[inhibitor] (M) -6.208): 7.48E-01 and 8.25E-01 and 7.95E-01
dose-response signal (normalized), SI Fig 8 (PfcProRS; Log[inhibitor] (M) -6.509): 8.42E-01 and 8.68E-01 and 7.28E-01
dose-response signal (normalized), SI Fig 8 (PfcProRS; Log[inhibitor] (M) -6.796): 9.11E-01 and 1.04E+00 and 1.02E+00
dose-response signal (normalized), SI Fig 8 (PfcProRS; Log[inhibitor] (M) -7.108): 9.58E-01 and 9.39E-01 and 1.04E+00
dose-response signal (normalized), SI Fig 8 (PfcProRS; Log[inhibitor] (M) -7.409): 9.93E-01 and 1.06E+00 (2×)
dose-response signal (normalized), SI Fig 8 (PfcProRS; Log[inhibitor] (M) -7.710): 1.14E+00 and 1.04E+00 and 9.88E-01
dose-response signal (normalized), SI Fig 8 (PfcProRS; Log[inhibitor] (M) -8.000): 9.88E-01 and 1.04E+00 and 1.02E+00
dose-response signal (normalized), SI Fig 8 (PfcProRS; Log[inhibitor] (M) -8.301): 9.59E-01 and 9.72E-01 and 9.39E-01
dose-response signal (normalized), SI Fig 8 (PfcProRS; Log[inhibitor] (M) -8.602): 9.15E-01 and 9.90E-01 and 9.70E-01
dose-response signal (normalized), SI Fig 8 (PfcProRS; Log[inhibitor] (M) -9.000): 9.95E-01 and 1.01E+00 and 9.84E-01
dose-response signal (normalized), SI Fig 8 (PfcProRS; Log[inhibitor] (M) -9.301): 1.06E+00 and 9.86E-01 and 9.57E-01
PfcProRS -- best Kd (PfcProRS; SI Fig 16a, values on -log scale): 6.452
EC50 (P. falciparum Dd2-2D4): 6.58 µM
